# Laboratory results from the kinase profiling compilation of Christmann-Franck et al. (2016).
# Key:
# Experiment in all cases: KINOMEscan competition binding
# Conditions in all cases: compound 10.0 µM
# [1] = test system: ABL1 (human), P00519 [F317I]
# [2] = test system: ABL1 (human), P00519 [F317L]
# [3] = test system: ABL1 (human), P00519 [T315I]
# [4] = biological target: ACVR2B (human) (UniProt Q13705)
# [5] = biological target: CASK (human) (UniProt O14936)
# [6] = biological target: CDK4 CCND3 (human) (UniProt P11802+P30281)
# [7] = biological target: CDKL3 (human) (UniProt Q8IVW4)
# [8] = biological target: CSNK1A1 (human) (UniProt P48729)
# [9] = biological target: DSTYK (human) (UniProt Q6XUX3)
# [10] = biological target: DYRK2 (human) (UniProt Q92630)
# [11] = biological target: EIF2AK1 (human) (UniProt Q9BQI3)
# [12] = biological target: ERBB3 (human) (UniProt P21860)
# [13] = biological target: GRK7 (human) (UniProt Q8WTQ7)
# [14] = biological target: IRAK4 (human) (UniProt Q9NWZ3)
# [15] = test system: KIT (human), P10721 [D816H]
# [16] = test system: KIT (human), P10721 [L576P]
# [17] = biological target: MAK (human) (UniProt P20794)
# [18] = biological target: MAP3K15 (human) (UniProt Q6ZN16)
# [19] = biological target: MAP3K6 (human) (UniProt O95382)
# [20] = biological target: MAST1 (human) (UniProt Q9Y2H9)
# [21] = biological target: MATK (human) (UniProt P42679)
# [22] = biological target: NEK11 (human) (UniProt Q8NG66)
# [23] = biological target: NIM1 (human) (UniProt Q8IY84)
# [24] = biological target: PI4KB (human) (UniProt Q9UBF8)
# [25] = biological target: PIK3C2G (human) (UniProt O75747)
# [26] = test system: PIK3CA (human), P42336 [C420R]
# [27] = test system: PIK3CA (human), P42336 [E545A]
# [28] = test system: PIK3CA (human), P42336 [H1047L]
# [29] = test system: PIK3CA (human), P42336 [H1047Y]
# [30] = test system: PIK3CA (human), P42336 [I800L]
# [31] = test system: PIK3CA (human), P42336 [M1043I]
# [32] = biological target: PIP4K2C (human) (UniProt Q8TBX8)
# [33] = biological target: PRKCI (human) (UniProt P41743)
# [34] = biological target: PRKG2 (human) (UniProt Q13237)
# [35] = biological target: ROCK1 (human) (UniProt Q13464)
# [36] = biological target: RPS6KB1 (human) (UniProt P23443)
# [37] = biological target: SGK3 (human) (UniProt Q96BR1)
# [38] = biological target: STK38 (human) (UniProt Q15208)
# [39] = biological target: TBK1 (human) (UniProt Q9UHD2)
# [40] = biological target: TRPM6 (human) (UniProt Q9BX84)
# [41] = biological target: VRK2 (human) (UniProt Q86Y07)
# [42] = biological target: YSK4 (human) (UniProt Q56UN5)
# Chain of GRK7 (human) (Q8WTQ7 whole entry, looked up): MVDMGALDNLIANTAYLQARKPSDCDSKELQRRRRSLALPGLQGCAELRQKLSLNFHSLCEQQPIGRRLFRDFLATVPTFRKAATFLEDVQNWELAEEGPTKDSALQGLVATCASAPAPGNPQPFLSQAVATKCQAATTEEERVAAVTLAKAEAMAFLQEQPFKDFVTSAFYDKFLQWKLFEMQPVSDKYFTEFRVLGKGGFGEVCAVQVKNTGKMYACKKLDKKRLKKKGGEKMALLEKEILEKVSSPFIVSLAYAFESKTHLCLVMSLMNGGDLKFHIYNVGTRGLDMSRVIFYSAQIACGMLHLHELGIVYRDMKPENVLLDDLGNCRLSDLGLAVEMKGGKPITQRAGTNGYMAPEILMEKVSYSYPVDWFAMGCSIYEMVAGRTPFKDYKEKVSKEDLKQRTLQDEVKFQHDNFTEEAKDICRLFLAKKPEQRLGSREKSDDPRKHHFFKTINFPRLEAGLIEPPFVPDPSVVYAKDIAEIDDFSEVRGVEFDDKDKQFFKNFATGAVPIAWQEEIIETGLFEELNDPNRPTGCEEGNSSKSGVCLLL
# Chain of PRKG2 (human) (Q13237 whole entry, looked up): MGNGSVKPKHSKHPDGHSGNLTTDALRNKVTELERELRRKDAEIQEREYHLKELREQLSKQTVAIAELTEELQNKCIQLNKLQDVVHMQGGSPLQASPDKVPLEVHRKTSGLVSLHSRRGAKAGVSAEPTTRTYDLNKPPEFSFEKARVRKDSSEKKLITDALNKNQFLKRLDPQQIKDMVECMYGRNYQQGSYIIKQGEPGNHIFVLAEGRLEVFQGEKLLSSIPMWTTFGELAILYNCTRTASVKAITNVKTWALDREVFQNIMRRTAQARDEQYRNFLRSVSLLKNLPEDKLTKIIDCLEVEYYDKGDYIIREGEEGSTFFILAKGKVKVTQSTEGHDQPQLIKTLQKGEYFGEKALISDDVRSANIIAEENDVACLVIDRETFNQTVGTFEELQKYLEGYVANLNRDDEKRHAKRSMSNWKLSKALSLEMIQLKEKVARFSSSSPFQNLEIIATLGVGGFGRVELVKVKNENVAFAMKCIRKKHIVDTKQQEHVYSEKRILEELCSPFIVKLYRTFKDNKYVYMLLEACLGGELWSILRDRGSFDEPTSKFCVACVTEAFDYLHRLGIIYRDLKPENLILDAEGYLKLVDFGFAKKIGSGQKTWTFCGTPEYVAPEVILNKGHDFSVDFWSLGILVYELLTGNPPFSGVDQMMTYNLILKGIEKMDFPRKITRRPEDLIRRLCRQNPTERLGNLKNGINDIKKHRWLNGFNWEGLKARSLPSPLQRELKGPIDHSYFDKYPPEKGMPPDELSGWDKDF
# Chain of ROCK1 (human) (Q13464 whole entry, looked up): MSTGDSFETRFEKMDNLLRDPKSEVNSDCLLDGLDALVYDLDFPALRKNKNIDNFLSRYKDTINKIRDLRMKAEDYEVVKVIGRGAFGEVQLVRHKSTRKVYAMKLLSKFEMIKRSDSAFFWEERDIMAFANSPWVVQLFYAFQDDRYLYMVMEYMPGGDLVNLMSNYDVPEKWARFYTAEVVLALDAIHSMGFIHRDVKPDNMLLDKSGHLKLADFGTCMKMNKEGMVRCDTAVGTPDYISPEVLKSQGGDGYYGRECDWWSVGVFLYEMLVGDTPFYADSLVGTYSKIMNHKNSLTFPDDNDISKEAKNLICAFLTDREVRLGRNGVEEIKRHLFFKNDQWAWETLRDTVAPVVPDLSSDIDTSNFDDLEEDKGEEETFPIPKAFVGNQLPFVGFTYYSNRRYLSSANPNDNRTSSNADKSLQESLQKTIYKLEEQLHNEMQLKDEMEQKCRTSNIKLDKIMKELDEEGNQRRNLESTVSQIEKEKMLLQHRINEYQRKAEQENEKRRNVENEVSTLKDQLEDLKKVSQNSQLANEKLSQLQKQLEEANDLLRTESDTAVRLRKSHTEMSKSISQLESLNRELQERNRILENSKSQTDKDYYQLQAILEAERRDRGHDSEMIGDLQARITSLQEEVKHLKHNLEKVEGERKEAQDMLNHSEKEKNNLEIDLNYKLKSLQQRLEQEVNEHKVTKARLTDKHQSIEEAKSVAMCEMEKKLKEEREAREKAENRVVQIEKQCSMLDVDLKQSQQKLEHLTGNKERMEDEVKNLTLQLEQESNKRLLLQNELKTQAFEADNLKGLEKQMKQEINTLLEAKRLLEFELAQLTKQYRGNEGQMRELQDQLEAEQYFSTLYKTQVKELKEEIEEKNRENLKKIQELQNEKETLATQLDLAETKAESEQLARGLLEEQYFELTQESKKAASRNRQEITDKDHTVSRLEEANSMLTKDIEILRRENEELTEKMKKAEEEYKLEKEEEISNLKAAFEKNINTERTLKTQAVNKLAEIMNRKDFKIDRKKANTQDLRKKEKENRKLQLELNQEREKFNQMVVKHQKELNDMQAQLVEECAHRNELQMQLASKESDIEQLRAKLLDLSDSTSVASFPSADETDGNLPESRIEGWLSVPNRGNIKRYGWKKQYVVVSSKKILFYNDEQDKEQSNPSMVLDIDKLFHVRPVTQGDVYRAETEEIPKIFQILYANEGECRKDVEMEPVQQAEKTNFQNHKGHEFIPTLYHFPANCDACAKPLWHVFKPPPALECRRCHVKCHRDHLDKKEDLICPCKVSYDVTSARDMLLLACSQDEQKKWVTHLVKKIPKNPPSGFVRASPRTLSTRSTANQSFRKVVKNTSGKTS
# Chain of KIT (human), P10721 [D816H] (P10721 whole entry D816H, looked up): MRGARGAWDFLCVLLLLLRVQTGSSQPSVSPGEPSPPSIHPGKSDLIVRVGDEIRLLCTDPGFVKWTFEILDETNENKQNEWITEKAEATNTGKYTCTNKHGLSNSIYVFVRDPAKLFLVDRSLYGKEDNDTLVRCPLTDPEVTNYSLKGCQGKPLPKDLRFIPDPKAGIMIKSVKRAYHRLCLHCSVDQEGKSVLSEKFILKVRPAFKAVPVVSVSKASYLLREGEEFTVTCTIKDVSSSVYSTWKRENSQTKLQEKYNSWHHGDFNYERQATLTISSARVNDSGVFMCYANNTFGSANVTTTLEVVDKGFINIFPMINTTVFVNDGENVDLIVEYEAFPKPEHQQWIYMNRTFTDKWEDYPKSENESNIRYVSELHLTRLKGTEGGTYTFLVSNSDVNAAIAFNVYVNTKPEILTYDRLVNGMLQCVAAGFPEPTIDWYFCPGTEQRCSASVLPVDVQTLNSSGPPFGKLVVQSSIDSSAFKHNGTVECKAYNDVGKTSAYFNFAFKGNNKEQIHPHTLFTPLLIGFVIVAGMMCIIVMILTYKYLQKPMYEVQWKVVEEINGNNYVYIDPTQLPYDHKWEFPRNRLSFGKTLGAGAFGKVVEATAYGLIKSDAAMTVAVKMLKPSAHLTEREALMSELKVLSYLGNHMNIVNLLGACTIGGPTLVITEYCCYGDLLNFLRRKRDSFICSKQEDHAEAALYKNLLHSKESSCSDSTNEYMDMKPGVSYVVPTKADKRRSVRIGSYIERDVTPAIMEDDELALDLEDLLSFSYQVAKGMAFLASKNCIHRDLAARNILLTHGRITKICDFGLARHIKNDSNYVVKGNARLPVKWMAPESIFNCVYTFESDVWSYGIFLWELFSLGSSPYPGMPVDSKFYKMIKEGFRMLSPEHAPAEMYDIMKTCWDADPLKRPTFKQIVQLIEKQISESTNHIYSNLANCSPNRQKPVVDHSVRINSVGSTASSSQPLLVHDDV
# Chain of IRAK4 (human) (Q9NWZ3 whole entry, looked up): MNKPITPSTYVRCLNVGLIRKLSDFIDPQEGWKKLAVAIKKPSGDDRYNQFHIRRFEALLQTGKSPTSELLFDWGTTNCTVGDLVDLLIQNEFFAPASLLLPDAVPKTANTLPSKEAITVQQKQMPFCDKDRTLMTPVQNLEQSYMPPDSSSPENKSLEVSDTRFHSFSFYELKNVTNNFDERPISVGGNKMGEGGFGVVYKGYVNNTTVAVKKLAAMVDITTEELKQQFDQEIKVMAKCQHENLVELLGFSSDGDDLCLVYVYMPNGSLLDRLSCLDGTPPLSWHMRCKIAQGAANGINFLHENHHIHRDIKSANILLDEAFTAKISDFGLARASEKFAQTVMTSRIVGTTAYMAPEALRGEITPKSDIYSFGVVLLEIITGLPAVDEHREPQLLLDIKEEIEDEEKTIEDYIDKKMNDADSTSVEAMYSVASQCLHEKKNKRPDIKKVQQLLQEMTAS
# Chain of CDKL3 (human) (Q8IVW4 whole entry, looked up): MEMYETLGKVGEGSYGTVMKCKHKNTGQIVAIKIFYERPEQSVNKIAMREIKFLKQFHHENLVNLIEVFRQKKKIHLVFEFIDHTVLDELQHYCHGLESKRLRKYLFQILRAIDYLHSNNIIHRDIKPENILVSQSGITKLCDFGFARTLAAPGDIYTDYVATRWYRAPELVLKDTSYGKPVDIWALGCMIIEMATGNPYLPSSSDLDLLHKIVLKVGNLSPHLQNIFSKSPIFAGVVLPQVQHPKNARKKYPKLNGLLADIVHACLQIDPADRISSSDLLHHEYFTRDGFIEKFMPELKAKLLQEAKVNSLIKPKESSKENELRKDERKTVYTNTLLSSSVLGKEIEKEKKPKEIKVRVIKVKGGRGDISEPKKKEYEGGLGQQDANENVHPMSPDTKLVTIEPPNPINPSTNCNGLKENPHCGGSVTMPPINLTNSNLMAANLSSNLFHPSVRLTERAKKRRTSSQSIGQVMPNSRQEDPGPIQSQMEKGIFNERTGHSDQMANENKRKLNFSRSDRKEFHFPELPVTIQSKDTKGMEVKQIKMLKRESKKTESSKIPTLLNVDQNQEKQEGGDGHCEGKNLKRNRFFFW
# Chain of KIT (human), P10721 [L576P] (P10721 whole entry L576P, looked up): as the sequence (P10721 whole entry D816H, looked up) above, with L576P, H816D counted along it
smiles,measurement,setting,value
COc1cc(N2CCC(N3CCN(C)CC3)CC2)ccc1Nc1ncc(Cl)c(Nc2ccccc2S(=O)(=O)C(C)C)n1,"kinase still bound, per cent of control",[1],0.45%
same,"kinase still bound, per cent of control",[2],0.7%
same,"kinase still bound, per cent of control",[3],0.1%
CCN1CCN(Cc2ccc(NC(=O)c3ccc(C)c(/C=C/c4cnc(Nc5cc(N6CCNCC6)nc(C)n5)cn4)c3)cc2C(F)(F)F)CC1,"kinase still bound, per cent of control",[4],92%
same,"kinase still bound, per cent of control",[5],72%
same,"kinase still bound, per cent of control",[6],64%
same,"kinase still bound, per cent of control",[7],0.55%
same,"kinase still bound, per cent of control",[8],14%
same,"kinase still bound, per cent of control",[9],69%
same,"kinase still bound, per cent of control",[10],74%
same,"kinase still bound, per cent of control",[11],100%
same,"kinase still bound, per cent of control",[12],100%
same,"kinase still bound, per cent of control",[13],73%
same,"kinase still bound, per cent of control",[14],77%
same,"kinase still bound, per cent of control",[15],20%
same,"kinase still bound, per cent of control",[16],0.2%
same,"kinase still bound, per cent of control",[17],49%
same,"kinase still bound, per cent of control",[18],100%
same,"kinase still bound, per cent of control",[19],93%
same,"kinase still bound, per cent of control",[20],87%
same,"kinase still bound, per cent of control",[21],100%
same,"kinase still bound, per cent of control",[22],40%
same,"kinase still bound, per cent of control",[23],100%
same,"kinase still bound, per cent of control",[24],63%
same,"kinase still bound, per cent of control",[25],87%
same,"kinase still bound, per cent of control",[26],80%
same,"kinase still bound, per cent of control",[27],100%
same,"kinase still bound, per cent of control",[28],97%
same,"kinase still bound, per cent of control",[29],68%
same,"kinase still bound, per cent of control",[30],94%
same,"kinase still bound, per cent of control",[31],73%
same,"kinase still bound, per cent of control",[32],61%
same,"kinase still bound, per cent of control",[33],74%
same,"kinase still bound, per cent of control",[34],88%
same,"kinase still bound, per cent of control",[35],100%
same,"kinase still bound, per cent of control",[36],6.2%
same,"kinase still bound, per cent of control",[37],80%
same,"kinase still bound, per cent of control",[38],79%
same,"kinase still bound, per cent of control",[39],96%
same,"kinase still bound, per cent of control",[40],67%
same,"kinase still bound, per cent of control",[41],62%
same,"kinase still bound, per cent of control",[42],0%
CCOc1cc(N2CCC(N3CCCCC3)CC2)ccc1Nc1nc(Nc2ccccc2S(=O)(=O)C(C)C)c2cn[nH]c2n1,"kinase still bound, per cent of control",[4],100%
same,"kinase still bound, per cent of control",[5],100%
same,"kinase still bound, per cent of control",[6],100%
same,"kinase still bound, per cent of control",[7],100%
same,"kinase still bound, per cent of control",[8],55%
same,"kinase still bound, per cent of control",[9],2.8%
same,"kinase still bound, per cent of control",[10],90%
same,"kinase still bound, per cent of control",[11],100%
same,"kinase still bound, per cent of control",[12],55%
same,"kinase still bound, per cent of control",[13],100%
same,"kinase still bound, per cent of control",[14],87%
same,"kinase still bound, per cent of control",[15],73%
same,"kinase still bound, per cent of control",[16],67%
same,"kinase still bound, per cent of control",[17],100%
same,"kinase still bound, per cent of control",[18],77%
same,"kinase still bound, per cent of control",[19],99%
same,"kinase still bound, per cent of control",[20],46%
same,"kinase still bound, per cent of control",[21],100%
same,"kinase still bound, per cent of control",[22],100%
same,"kinase still bound, per cent of control",[23],100%
same,"kinase still bound, per cent of control",[24],58%
same,"kinase still bound, per cent of control",[25],100%
same,"kinase still bound, per cent of control",[26],100%
same,"kinase still bound, per cent of control",[27],100%
same,"kinase still bound, per cent of control",[28],100%
same,"kinase still bound, per cent of control",[29],100%
same,"kinase still bound, per cent of control",[30],100%
same,"kinase still bound, per cent of control",[31],100%
same,"kinase still bound, per cent of control",[32],100%
same,"kinase still bound, per cent of control",[33],100%
same,"kinase still bound, per cent of control",[34],100%
same,"kinase still bound, per cent of control",[35],4.8%
same,"kinase still bound, per cent of control",[36],100%
same,"kinase still bound, per cent of control",[37],92%
same,"kinase still bound, per cent of control",[38],98%
same,"kinase still bound, per cent of control",[39],100%
same,"kinase still bound, per cent of control",[40],100%
same,"kinase still bound, per cent of control",[41],68%
same,"kinase still bound, per cent of control",[42],100%
CCN1CCN(Cc2ccc(NC(=O)c3ccc(C)c(Oc4ccnc5[nH]ccc45)c3)cc2C(F)(F)F)CC1,"kinase still bound, per cent of control",[1],0.05%
same,"kinase still bound, per cent of control",[2],0.1%
same,"kinase still bound, per cent of control",[3],0%
